Assay results reported in PMC5517430, “2,3,7,8-Tetrachlorodibenzo-p-dioxin (TCDD)-elicited effects on bile acid homeostasis: Alterations in biosynthesis, enterohepatic circulation, and microbial metabolism” (Scientific Reports, 2017).

Columns and labels:
Type in all cases: in vivo, mouse
[1] = test system: liver of C57BL/6 mice; assay: QuHAnT quantitation of Oil Red O staining (hepatic fat accumulation); settings: 30 µg/kg TCDD every 4 d for 28 d
Protocol: All processing was performed by the MSU Investigative Histopathology Laboratory (https://humanpathology.natsci.msu.edu/). Formalin-fixed hepatic tissues were vacuum infiltrated with paraffin using a Tissue-Tek VIP 2000 tissue processor (Sakura) and embedded with the Thermo Fisher HistoCentre III Embedding Center (Thermo Fisher, Waltham, Massachusetts). Paraffin blocks were sectioned at 4–5 µm with a Reichert Jung 2030 rotary microtome (Reichert, Depew, New York) and dried for 2–24 h at 56 °C to ensure adherence to the slides. For lipid staining, liver sections frozen in O.C.T. compound were sectioned at 6 µm, fixed in 10% NBF for 5 min, rinsed with water, and immersed in 100% propylene glycol for 5 min. Liver sections were stained with hematoxylin and eosin (H&E) for general histological assessment. Lipids were stained using Oil Red O (ORO) as previously described. […]
Quantitation of ORO staining was performed using the Quantitative Histological Analysis Tool (QuHAnT)[66]. […] Using ImageJ (http://rsb.info.nih.gov.ij/), optimal hue, saturation, and value (HSV) image segmentation thresholds for feature extraction were determined to be 0 to 50 and 225 to 255 (hue), 125 to 255 (saturation), and 0 to 255 (value), while optimal total tissue feature extraction thresholds were 0 to 255 (hue), 20 to 255 (saturation), and 0 to 255 (value). […]

[2] = test system: Slc10a2; assay: Ileal epithelium RNA-Seq differential gene expression (fold change, P1(t), ED50, BMD, BMDL); parameters: key to Cyp3a44 P1(t)_30: statistical P1(t) value; differentially expressed if ≥ 0.8; settings: C57BL/6, mouse, ileal epithelium, oral; male mice, TCDD every 4 d for 28 d
Protocol: (§1) Frozen ileal epithelium scrapings and liver samples were homogenized in TRIzol (Ambion, Waltham, MA) using a Mixer Mill 300 tissue homogenizer (Retsch, Germany) and total RNA was isolated as previously described. RNA was quantified using a Nano-drop spectrophotometer (Thermo Scientific, Wilmington, DE) at 260 nm, and purity was assessed using the A260/A280 ratio and the Caliper LabChip GX (Perkin Elmer, Waltham, MA).
(§2) Dose-dependent gene expression was examined using RNA-Seq performed at the MSU Research Technology Support Facility (RTSF) Genomics Core (rtsf.natsci.msu.edu/genomics). Ileal libraries from three independent biological replicates (n = 3) were prepared using the Ovation Mouse RNA-Seq System 1–16 sample preparation kit (NuGen, San Carlos, CA), with an additional DNase step. Libraries were quantified and sequenced as previously described, using a read depth of ~30 M per sample[33], [67]. Quality was determined using FASTQC v0.11.3 and adaptor sequences were removed using Trimmomatic v0.33. Reads were mapped to the mouse reference genome (GRCm38 release 81) using Bowtie2 v2.2.6 and TopHat2 v2.1.0. Alignments were converted to SAM format using SAMTools v1.2.0. For TCDD-mediated differential gene expression, fold changes were calculated relative to vehicle controls. Hepatic RNA-Seq analysis was previously published. Genes were considered differentially expressed if |fold change| ≥ 1.5 and statistical P1(t) value ≥ 0.8 at one or more doses. RNA-Seq datasets for the ileal epithelium and liver were deposited in the Gene Expression Omnibus (GEO; accession number GSE89430 and GSE87519, respectively). The RNA-Seq results (fold changes, P1(t) values) for each gene discussed in the manuscript have been compiled in Supplementary Table S1. […] Estimation of benchmark dose (BMD) and BMD lower confidence limit (BMDL) was performed using BMDExpress[69] as previously described, and has been included in Supplementary Table S1.

[3] = test system: Slc51a; assay: as above; parameters: key to Cyp3a44 P1(t)_30: statistical P1(t) value; differentially expressed if ≥ 0.8; settings: C57BL/6, mouse, ileal epithelium, oral; male mice, TCDD every 4 d for 28 d
Protocol: as §1, §2

[4] = test system: ileal gene expression; assay: as above; parameters: key to Cyp3a44 P1(t)_30: statistical P1(t) value; differentially expressed if ≥ 0.8
Protocol: as §1, §2

[5] = ileum, 0.01 µg/kg TCDD, relative to vehicle control
[6] = ileum, 0.03 µg/kg TCDD, relative to vehicle control
[7] = ileum, 0.1 µg/kg TCDD, relative to vehicle control
[8] = ileum, 0.3 µg/kg TCDD, relative to vehicle control
[9] = ileum, 1 µg/kg TCDD, relative to vehicle control
[10] = ileum, 3 µg/kg TCDD, relative to vehicle control
[11] = ileum, 10 µg/kg TCDD, relative to vehicle control
[12] = ileum, 30 µg/kg TCDD, relative to vehicle control
[13] = male mice, TCDD every 4 d for 28 d

**Q.** Which “Hepatic fat accumulation (ORO), males compared to females” value [1] does the source give for `Clc1cc2c(cc1Cl)Oc1cc(Cl)c(Cl)cc1O2` [TCDD, 2,3,7,8-tetrachlorodibenzo-p-dioxin] here?
**A.** The value was 6.2 fold.

**Q.** What about the fold induction at 28 d [2] of the same molecule?
**A.** The fold induction at 28 d was 1.6.

**Q.** What about the fold induction at 28 d [3] of the same molecule?
**A.** The fold induction at 28 d was 1.5.

**Q.** What about the “Cyp3a44 BMD” value ([4]; ileum) of the same molecule?
**A.** The value was 36.49 µg/kg TCDD.

**Q.** What about the “Cyp3a44 BMDL” value ([4]; ileum) of the same molecule?
**A.** The value was 18.80 µg/kg TCDD.

**Q.** What about the “Cyp3a44 Differentially Expressed?” value ([4]; ileum) of the same molecule?
**A.** Its value is “YES”.

**Q.** What about the “Cyp3a44 ED50” value ([4]; ileum) of the same molecule?
**A.** The value was “Not sigmoidal”.

**Q.** What about the “Fgf15 BMD” value ([4]; ileum) of the same molecule?
**A.** The value was “No model fit”.

**Q.** What about the “Fgf15 BMDL” value ([4]; ileum) of the same molecule?
**A.** Its value is “No model fit”.

**Q.** What about the “Fgf15 Differentially Expressed?” value ([4]; ileum) of the same molecule?
**A.** The value was “YES”.

**Q.** And the “Fgf15 ED50” value ([4]; ileum)?
**A.** The value was 9.00 µg/kg TCDD.

**Q.** What about the “Slc10a2 (ASBT or IBAT) BMD” value ([4]; ileum) of the same molecule?
**A.** The value was 5.66 µg/kg TCDD.

**Q.** And the “Slc10a2 (ASBT or IBAT) BMDL” value ([4]; ileum)?
**A.** Its value is 0.69 µg/kg TCDD.

**Q.** What about the “Slc10a2 (ASBT or IBAT) Differentially Expressed?” value ([4]; ileum) of the same molecule?
**A.** Its value is “YES”.

**Q.** And the “Slc10a2 (ASBT or IBAT) ED50” value ([4]; ileum)?
**A.** Its value is 0.98 µg/kg TCDD.

**Q.** And the “Slc51a (OSTα) BMD” value ([4]; ileum)?
**A.** The value was “No model fit”.

**Q.** And the “Slc51a (OSTα) BMDL” value ([4]; ileum)?
**A.** Its value is “No model fit”.

**Q.** And the “Slc51a (OSTα) Differentially Expressed?” value ([4]; ileum)?
**A.** The value was “YES”.

**Q.** And the “Slc51a (OSTα) ED50” value ([4]; ileum)?
**A.** Its value is 0.89 µg/kg TCDD.

**Q.** What about the “Cyp3a44 P1(t)_0.01” value ([4]; ileum, 0.01 µg/kg TCDD) of the same molecule?
**A.** The value was -0.1316.

**Q.** And the “Cyp3a44 FC_0.01” value [4, 5]?
**A.** The value was 0.91.

**Q.** What about the “Fgf15 FC_0.01” value [4, 5] of the same molecule?
**A.** Its value is 0.81.

**Q.** And the “Slc10a2 (ASBT or IBAT) FC_0.01” value [4, 5]?
**A.** Its value is 0.93.

**Q.** And the “Slc51a (OSTα) FC_0.01” value [4, 5]?
**A.** Its value is 0.98.

**Q.** And the “Slc51b (OSTβ) FC_0.01” value [4, 5]?
**A.** Its value is 0.88.

**Q.** What about the “Cyp3a44 P1(t)_0.03” value ([4]; ileum, 0.03 µg/kg TCDD) of the same molecule?
**A.** The value was 0.0640.

**Q.** And the “Cyp3a44 FC_0.03” value [4, 6]?
**A.** Its value is 0.80.

**Q.** What about the “Fgf15 FC_0.03” value [4, 6] of the same molecule?
**A.** Its value is 0.63.

**Q.** And the “Slc10a2 (ASBT or IBAT) FC_0.03” value [4, 6]?
**A.** Its value is 0.93.

**Q.** What about the “Slc51a (OSTα) FC_0.03” value [4, 6] of the same molecule?
**A.** The value was 0.96.

**Q.** And the “Slc51b (OSTβ) FC_0.03” value [4, 6]?
**A.** Its value is 0.87.

**Q.** And the “Cyp3a44 P1(t)_0.1” value ([4]; ileum, 0.1 µg/kg TCDD)?
**A.** Its value is -0.1090.

**Q.** What about the “Cyp3a44 FC_0.1” value [4, 7] of the same molecule?
**A.** Its value is 0.89.

**Q.** And the “Fgf15 FC_0.1” value [4, 7]?
**A.** Its value is 0.85.

**Q.** And the “Slc10a2 (ASBT or IBAT) FC_0.1” value [4, 7]?
**A.** The value was 0.92.

**Q.** What about the “Slc51a (OSTα) FC_0.1” value [4, 7] of the same molecule?
**A.** The value was 0.98.

**Q.** And the “Slc51b (OSTβ) FC_0.1” value [4, 7]?
**A.** The value was 0.88.

**Q.** What about the “Cyp3a44 P1(t)_0.3” value ([4]; ileum, 0.3 µg/kg TCDD) of the same molecule?
**A.** The value was 0.6027.

**Q.** What about the “Cyp3a44 FC_0.3” value [4, 8] of the same molecule?
**A.** Its value is 0.61.

**Q.** And the “Fgf15 FC_0.3” value [4, 8]?
**A.** Its value is 1.12.

**Q.** And the “Slc10a2 (ASBT or IBAT) FC_0.3” value [4, 8]?
**A.** Its value is 0.74.

**Q.** And the “Slc51a (OSTα) FC_0.3” value [4, 8]?
**A.** Its value is 1.07.

**Q.** What about the “Slc51b (OSTβ) FC_0.3” value [4, 8] of the same molecule?
**A.** Its value is 0.88.

**Q.** What about the “Cyp3a44 P1(t)_1” value ([4]; ileum, 1 µg/kg TCDD) of the same molecule?
**A.** The value was 0.5083.

**Q.** And the “Cyp3a44 FC_1” value [4, 9]?
**A.** Its value is 0.65.

**Q.** What about the “Fgf15 FC_1” value [4, 9] of the same molecule?
**A.** The value was 1.50.

**Q.** What about the “Slc10a2 (ASBT or IBAT) FC_1” value [4, 9] of the same molecule?
**A.** Its value is 1.19.

**Q.** And the “Slc51a (OSTα) FC_1” value [4, 9]?
**A.** The value was 1.30.

**Q.** And the “Slc51b (OSTβ) FC_1” value [4, 9]?
**A.** The value was 0.90.

**Q.** What about the “Cyp3a44 P1(t)_3” value ([4]; ileum, 3 µg/kg TCDD) of the same molecule?
**A.** Its value is -0.1130.

**Q.** And the “Cyp3a44 FC_3” value [4, 10]?
**A.** Its value is 1.12.

**Q.** And the “Fgf15 FC_3” value [4, 10]?
**A.** The value was 1.99.

**Q.** And the “Slc10a2 (ASBT or IBAT) FC_3” value [4, 10]?
**A.** Its value is 1.22.

**Q.** What about the “Slc51a (OSTα) FC_3” value [4, 10] of the same molecule?
**A.** Its value is 1.46.

**Q.** What about the “Slc51b (OSTβ) FC_3” value [4, 10] of the same molecule?
**A.** Its value is 0.95.

**Q.** And the “Cyp3a44 P1(t)_10” value ([4]; ileum, 10 µg/kg TCDD)?
**A.** The value was 0.9033.

**Q.** What about the “Cyp3a44 FC_10” value [4, 11] of the same molecule?
**A.** The value was 0.46.

**Q.** What about the “Fgf15 FC_10” value [4, 11] of the same molecule?
**A.** The value was 0.51.

**Q.** What about the “Slc10a2 (ASBT or IBAT) FC_10” value [4, 11] of the same molecule?
**A.** Its value is 1.38.

**Q.** And the “Slc51a (OSTα) FC_10” value [4, 11]?
**A.** The value was 1.34.

**Q.** And the “Slc51b (OSTβ) FC_10” value [4, 11]?
**A.** The value was 0.93.

**Q.** And the “Cyp3a44 P1(t)_30” value ([4]; ileum, 30 µg/kg TCDD)?
**A.** The value was 0.7035.

**Q.** And the “Cyp3a44 FC_30” value [4, 12]?
**A.** Its value is 0.58.

**Q.** And the “Fgf15 FC_30” value [4, 12]?
**A.** The value was 0.10.

**Q.** What about the “Slc10a2 (ASBT or IBAT) FC_30” value [4, 12] of the same molecule?
**A.** Its value is 1.59.

**Q.** What about the “Slc51a (OSTα) FC_30” value [4, 12] of the same molecule?
**A.** Its value is 1.15.

**Q.** What about the “Slc51b (OSTβ) FC_30” value [4, 12] of the same molecule?
**A.** Its value is 0.79.

**Q.** What about the “Cyp3a44 ileal expression, fold repression” value [4, 13] of the same molecule?
**A.** Its value is 2.2 fold.

**Q.** What about the Slc51b ileal expression [4, 13] of the same molecule?
**A.** The Slc51b ileal expression was “unchanged”.
